Reference: patent publication US9944700B2, “Notch2 binding molecules for treating respiratory diseases” (NOVARTIS AG, priority 2013, dated 2018)
Residue numbers refer to the chain shown, from its start.

B1: IL-1a: secreted, recombinant human protein profiled in the bronchosphere assay (protein, UniProt P01583 113-271, looked up)
Interleukin-1 alpha: SAPFSFLSNVKYNFMRIIKYEFILNDALNQSIIRANDQYLTAAALHNLDEAVKFDMGAYKSSKDDAKITVILRISKTQLYVTAQDEDQPVLLKEMPEIPKTITGSETNLLFFWETHGTKNYFTSVAHPNLFIATKQDYWVCLAGGPPSITDFQILENQA
B2: IL-28A: secreted, recombinant human protein profiled in the bronchosphere assay (protein, UniProt Q8IZJ0 26-200, looked up)
Interferon lambda-2: VPVARLHGALPDARGCHIAQFKSLSPQELQAFKRAKDALEESLLLKDCRCHSRLFPRTWDLRQLQVRERPMALEAELALTLKVLEATADTDPALVDVLDQPLHTLHHILSQFRACIQPQPTAGPRTRGRLHHWLYRLQEAPKKESPGCLEASVTFNLFRLLTRDLNCVASGDLCV
B3: IL-28B: secreted, recombinant human protein profiled in the bronchosphere assay (protein, UniProt Q8IZI9 22-196, looked up)
Interferon lambda-3: B2 Interferon lambda-2 with H7R, R49K, H51R, M71V, V95G, F112L, Y135H
B4: FGF-7: secreted, recombinant human protein profiled in the bronchosphere assay (protein, UniProt P21781 32-194, looked up)
Fibroblast growth factor 7: CNDMTPEQMATNVNCSSPERHTRSYDYMEGGDIRVRRLFCRTQWYLRIDKRGKVKGTQEMKNNYNIMEIRTVAVGIVAIKGVESEFYLAMNKEGKLYAKKECNEDCNFKELILENHYNTYASAKWTHNGGEMFVALNQKGIPVRGKKTKKEQKTAHFLPMAIT
B5: IL-29: secreted, recombinant human protein profiled in the bronchosphere assay (protein, UniProt Q8IU54 20-200, looked up)
Interferon lambda-1: GPVPTSKPTTTGKGCHIGRFKSLSPQELASFKKARDALEESLKLKNWSCSSPVFPGNWDLRLLQVRERPVALEAELALTLKVLEAAAGPALEDVLDQPLHTLHHILSQLQACIQPQPTAGPRPRGRLHHWLHRLQEAPKKESAGCLEASVTFNLFRLLTRDLKYVADGNLCLRTSTHPEST

Legend:
[1] = test system: bronchospheres (human bronchial epithelial cells); experiment: Bronchosphere assay of secreted recombinant human proteins, qPCR of cell type markers and immunostaining; format: cell-based; settings: for change in expression of at least one cell-type marker, initial screen: 55 proteins tested at 3.3, 10 and 30 ng/mL; for expression of both of the ciliated cell markers: markers FOXJ1, DNAI2; for expression of at least two of the goblet cell markers: markers MUC5AC, MUC5B, FOXA3; for change in expression of at least one of the cell-type markers, on validation: expanded concentration range
Protocol: (§1) Human bronchial epithelial (HBE) cells and culture media were obtained from Lonza. Air-liquid interface cultures using passage 2 (P2) cells were performed as previously described (Danahay, H. et al., American journal of physiology. Lung cellular and molecular physiology 282, L226-236 (2002)). For three-dimensional culturing of HBE cells, P1 cells were trypsinized and resuspended (30,000 cells/ml) in HBE differentiation media containing 5% growth factor-reduced Matrigel (BD Biosciences). 20 μl of suspension was plated in each well of a 384-well plate (Greiner) pre-coated with 10 μl of a 25% solution of Matrigel (BD Biosciences) in HBE differentiation media. Wells were fed or treated at day 2 and day 8 of culture by adding 30 μl of differentiation media containing the appropriate treatment. Three-dimensional cultures were analyzed at the time points indicated.
Immunofluorescence of HBEC bronchospheres was performed as described previously for MCF10A cysts (Debnath, J. et al., Methods 30, 256-268 (2003) with the following modifications. After incubation with fluorescence-conjugated secondary antibodies, DNA was stained with a 1:1 mix of PBS and ProLong gold antifade containing DAPI. Confocal microscopy was performed at room temperature on a microscope (Zeiss LSM510 Meta) using an EC Plan-Neofluar 10×/0.30 dry objective (Zeiss), an EC Plan-Neofluor 20×/0.5 dry objective (Zeiss), a C-Apochromat 40×/1.2 W corr (Zeiss), or a C-Apochromat 63×/1.2 W Corr objective (Zeiss). Images were collected with Zen confocal software (Zeiss). Scale bars were added, and images were processed using Zen (Zeiss) and Photoshop (Adobe). Air-liquid interface (ALI) cultures were processed for immunofluorescence analysis after 14 days of culture at ALI by rinsing the apical surface of each filter with PBS, and then fixing in 4% paraformaldehyde for 4 hours. Filters were washed with IF buffer (130 mM NaCl, 7 mM Na2HPO4, 3.5 mM NaH2PO4, 7.7 mM NaN3, 0.1% bovine serum albumin, 0.2% Triton X-100, 0.05% Tween-20), blocked with IF wash containing 10% goat serum, and stained with primary antibody in IF wash containing 10% goat serum overnight at 4° C. Secondary antibodies were used at a 1:200 dilution in IF buffer containing 10% goat serum. To quantify the total staining area of ALI cultures, 10×13 images were collected with a plan Neofluar 10×0.3 NA Ph1 objective (EC; Carl Zeiss, Inc.) on a microscope (Axiovert 200; Carl Zeiss, Inc.) equipped with a motorized stage and a camera (Orca-ER-1394; Hamamatsu Photonics) controlled by Axiovision software (Carl Zeiss, Inc.) and used to generate a single composite image using the MOSAIX function in Zeiss Axiovision. Quantification of the total staining area was performed with ImageJ. Two to three regions of each ALI culture were punched out with a 4 mm biopsy punch (Miltex, Inc.) and mounted in ProLong gold antifade containing DAPI for imaging by confocal microscopy on a microscope (Axiovert 200; Carl Zeiss, Inc.) equipped with a motorized stage, a Yokogawa CSU-X1 spinning disc head, and an EMCCD camera (Evolve 512, Photometrics), with a Plan-Apochromat 100×/1.4 Oil DIC objective (Zeiss). Cells positive for MUC5AC, MUC5B, or cilia (acetylated α-Tubulin) staining were counted manually. For time-lapse video microscopy, HBECs were imaged at the indicated times during bronchosphere development at 37° C. with a plan Neofluar 10×0.3 NA Ph1 objective (EC; Carl Zeiss, Inc.). Images were taken every 5 min for the indicated time period. Annotations (time stamp and scale bar) were added and videos were assembled using Axiovision software.
RNA was isolated from 3D bronchosphere cultures with Trizol (Invitrogen), using manufacturer's specifications. To isolate RNA from mouse tissue, approximately 20 mg of tissue was placed in a 1.5 ml eppendorf tube with 1 ml of Buffer RLT Plus (Qiagen). A 5 mm stainless steel bead (Qiagen) was added to the tube, and the tissue was sheared using a Tissue Lyser II (Qiagen).

airway basal cells = experiment: Air-liquid interface (ALI) cultures of airway basal cells treated with IL-17A; format: cell-based, human; settings: IL-17A from day 7 (day 0 at ALI), analysed day 21; FIGS. 3d, 3e
Protocol: as §1, with “Wells were fed or treated at day 2 and day 8 of culture by adding 30 μl of differentiation media containing the appropriate treatment.” left out
Immunofluorescence of HBEC bronchospheres was performed as described previously for MCF10A cysts (Debnath, J. et al., Methods 30, 256-268 (2003) with the following modifications. After incubation with fluorescence-conjugated secondary antibodies, DNA was stained with a 1:1 mix of PBS and ProLong gold antifade containing DAPI. Confocal microscopy was performed at room temperature on a microscope (Zeiss LSM510 Meta) using an EC Plan-Neofluar 10×/0.30 dry objective (Zeiss), an EC Plan-Neofluor 20×/0.5 dry objective (Zeiss), a C-Apochromat 40×/1.2 W corr (Zeiss), or a C-Apochromat 63×/1.2 W Corr objective (Zeiss). […]

[2] = IL-13 treated bronchospheres, immunostaining, FIG. 2c
[3] = IL-13 treatment between days 2 and 14 after seeding, qPCR, FIG. 2a

Row | Molecule | change in expression of at least one cell-type marker, initial screen [1] | expression of both of the ciliated cell markers [1] | expression of at least two of the goblet cell markers [1] | change in expression of at least one of the cell-type markers, on validation [1] | also measured
1 | IL-13: secreted, recombinant human protein (inflammatory cytokine) profiled in the bronchosphere assay | concentration-dependent change | attenuated | enhanced | robust change | acetylated α-tubulin positive structures [1, 2]: lack; secreted mucins in the central lumen [1, 2]: accumulation; ciliated cell marker expression [1, 3]: declined; expression of markers of goblet cells [1, 3]: clear enhancement; concentrations toxic and disrupting bronchosphere formation ([1]; data not shown): > 3 ng/mL
2 | IL-17A: secreted, recombinant human protein; cytokine secreted by Th17 cells | concentration-dependent change | attenuated | enhanced | robust change | basal cell markers ([1]; IL-17A, qPCR, FIG. 3c): No significant changes; levels of goblet cell markers (MUC5AC, MUC5B and FOXA3) ([1]; broader range of IL-17A concentrations, qPCR, FIG. 3a): increased levels; expression of markers of ciliated cells (FOXJ1 and DNAI2) ([1]; broader range of IL-17A concentrations, qPCR, FIG. 3b): inhibiting; goblet cell population (MUC5AC and MUC5B markers) (airway basal cells): profound expansion; number of ciliated cells (α-tubulin marker) (airway basal cells): dramatic reduction
3 | IFN-γ: secreted, recombinant human protein profiled in the bronchosphere assay | concentration-dependent change | attenuated | enhanced | robust change | 
4 | IL1-β: secreted, recombinant human protein profiled in the bronchosphere assay | concentration-dependent change | attenuated | enhanced | robust change | 
5 | B1 | concentration-dependent change | attenuated | enhanced | robust change | 
6 | B2 | concentration-dependent change | attenuated | enhanced | robust change | 
7 | B3 | concentration-dependent change | attenuated | enhanced | robust change | 
8 | B4 | concentration-dependent change |  |  |  | expression of MUC5B ([1]; bronchosphere assay): enhanced; effect on any of the other markers ([1]; markers other than MUC5B): without affecting
9 | B5 | concentration-dependent change | attenuated | enhanced | robust change | 
